Source: patent US8383637B2, “2-amino-quinazoline derivatives useful as inhibitors of β-secretase (BACE)” (Jansssen Pharmaceutica N.V., priority 2004, dated 2013)
Like-named read-outs stand apart in the source and are kept apart here.

Experiments:
β-secretase(BACE) [1] = target: T1, β-secretase(BACE) (Homo sapiens, UniProt P56817); experiment: BACE Assay-2 (FS1 substrate, IC50 and Ki); assay type: biochemical; settings: procedure of Example 159, FS1 substrate; read-out: Ki μM (159)
T1 construct: purchased Panvera
T1 sequence (P56817 46-501): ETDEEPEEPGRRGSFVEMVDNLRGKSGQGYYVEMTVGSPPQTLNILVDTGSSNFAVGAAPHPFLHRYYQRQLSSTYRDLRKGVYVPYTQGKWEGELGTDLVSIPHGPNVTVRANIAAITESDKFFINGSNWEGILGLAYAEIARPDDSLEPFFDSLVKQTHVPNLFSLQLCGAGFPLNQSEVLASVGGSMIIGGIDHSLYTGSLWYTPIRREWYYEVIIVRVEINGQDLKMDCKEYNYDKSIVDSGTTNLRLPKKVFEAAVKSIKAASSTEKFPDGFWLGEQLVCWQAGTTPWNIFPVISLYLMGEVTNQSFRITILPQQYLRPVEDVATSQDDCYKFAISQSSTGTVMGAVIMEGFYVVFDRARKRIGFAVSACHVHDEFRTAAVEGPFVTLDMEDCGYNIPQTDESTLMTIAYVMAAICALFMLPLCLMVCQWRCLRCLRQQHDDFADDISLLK
Method: The FS1-substrate stock solution was prepared in DMSO as a 10 mg/mL solution. The FS1-substrate working solution was prepared by diluting the 10 mg/mL stock solution with substrate assay buffer to a final concentration of 300 μg/mL. The β-secretase (BACE) working solution was prepared by diluting a 0.83 mg/mL BACE stock solution with enzyme assay buffer to a final concentration of 4 μg/mL.
Test compounds were dissolved in DMSO at 10 mM.
The procedure for this assay was as follows: 15 μL of BACE working solution was pipetted into each well of a 96-well plate. To each well was then pipetted 2 μL of test compound at the selected concentration. Test compound and BACE were then mixed with a pipettor and incubated for 20 min at room temperature. To each well was then added 10 μL of the FS1 substrate working solution.
The procedure for the positive control was as follows: 15 μL of BACE working solution was pipetted into each well to be used as a positive control. To each well was then pipetted 2 μL of vehicle. Vehicle and BACE were then mixed with a pipettor and incubated for 20 min at room temperature. To each well was then added 10 μL of the FS1 substrate working solution.
For test compounds, measured at multiple concentrations, the measured T0 and T60 values were used to calculate an IC50 value using Graphpad Software (or PIR). For test compounds, Ki inhibition was determined as follows: For each compound concentration and positive control, rate of cleavage of substrate (Vi, where i=compound concentration in μM) was determined as Δ Fluorescence/Δ time (min). Cleavage rates (Vi) were plotted as a function of inhibitor concentration in μM [I]. The Ki was then determined by fitting the following equation to the graph of [I] vs Vi Y=aVmax/(50+24*(1+X/Ki)),

β-secretase(BACE) [2] = target: T1, β-secretase(BACE); experiment: BACE FS1% Inhibition Assay; assay type: biochemical; settings: FS1 substrate; for inhibition at 10 µM: 10 μM test compound, read-out: % Inhibition (FS) 10 μM
In short: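 Human BACE (4 μg/mL working solution) preincubated 20 min at room temperature with compound, then FS1 substrate (300 μg/mL working solution) added and incubated 1 h at room temperature. Percent inhibition calculated at each compound concentration against blank and vehicle controls.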

[3] = 0.3 μM test compound, read-out: % Inhibition (FS) 0.3 μM
[4] = 1 μM test compound, read-out: % Inhibition (FS) 1 μM
[5] = 3 μM test compound, read-out: % Inhibition (FS) 3 μM
[6] = 0.3 μM test compound, read-out: % Inhibition (FS)
[7] = 1 μM test compound, read-out: % Inhibition (FS)
[8] = 3 μM test compound, read-out: % Inhibition (FS)

% Inhibition (FS) (β-secretase(BACE) [2]; 0.3 μM test compound) | % Inhibition (FS) (β-secretase(BACE) [2]; 1 μM test compound) | % Inhibition (FS) (β-secretase(BACE) [2]; 3 μM test compound) | inhibition at 0.3 µM (β-secretase(BACE) [2]; [6]) | inhibition at 1 µM (β-secretase(BACE) [2]; [7]) | inhibition at 3 µM (β-secretase(BACE) [2]; [8]) | other results | Compound
 |  |  |  |  |  | Ki (β-secretase(BACE) [1]): 0.13 µM; inhibition at 0.3 µM (β-secretase(BACE) [2]; [3]): < 30%; inhibition at 1 µM (β-secretase(BACE) [2]; [4]): 80%; inhibition at 3 µM (β-secretase(BACE) [2]; [5]): 118% | COc1ccccc1-c1ccc2c(c1)CN(C(CCC(=O)N(C)C1CCCCC1)C1CCCCC1)C(N)=N2 (single isomer, unassigned) [Compound 530]
 |  |  |  |  |  | Ki (β-secretase(BACE) [1]): 0.37 µM; inhibition at 3 µM (β-secretase(BACE) [2]; [5]): 70%; inhibition at 10 µM (β-secretase(BACE) [2]): 104% | CCCS(=O)(=O)NCCN1Cc2cc(Oc3ccccc3)ccc2N=C1N [Compound 134]
 |  |  |  |  |  | Ki (β-secretase(BACE) [1]): 0.5 µM; inhibition at 3 µM (β-secretase(BACE) [2]; [5]): 85%; inhibition at 10 µM (β-secretase(BACE) [2]): 133% | CN(C(=O)c1cccc(C(c2ccccc2)N2Cc3cc(Oc4ccccc4)ccc3N=C2N)c1)C1CCCCC1 (centres unmarked) [Compound 136]
 |  |  |  |  |  | Ki (β-secretase(BACE) [1]): 0.73 µM; inhibition at 3 µM (β-secretase(BACE) [2]; [5]): 82%; inhibition at 10 µM (β-secretase(BACE) [2]): 107% | CCCC(CCCC(=O)NC1CCCCCC1)N1Cc2cc(Oc3ccccc3)ccc2N=C1N (centres unmarked) [Compound 137]
 |  |  |  |  |  | Ki (β-secretase(BACE) [1]): 0.32 µM; inhibition at 3 µM (β-secretase(BACE) [2]; [5]): 79%; inhibition at 10 µM (β-secretase(BACE) [2]): 101% | NC1=Nc2ccc(Oc3ccccc3)cc2CN1CCNC(=O)CCC1CCCC1 [Compound 140]
 |  |  |  |  |  | Ki (β-secretase(BACE) [1]): 0.25 µM; inhibition at 0.3 µM (β-secretase(BACE) [2]; [3]): 35%; inhibition at 1 µM (β-secretase(BACE) [2]; [4]): 62%; inhibition at 3 µM (β-secretase(BACE) [2]; [5]): 114% | CCCCCC(CCC(=O)N(C)C1CCCCC1)N1Cc2cc(Oc3ccccc3)ccc2N=C1N (centres unmarked) [Compound 148]
−48% | −38% | −25% |  |  |  |  | CN(C(=O)CCC(C1CCCCC1)N1Cc2cc(Oc3ccccc3)ccc2N=C1N)C1(C(=O)O)CCCCC1 (centres unmarked) [Compound 741]
107% | 125% | 130% |  |  |  |  | CN(C(=O)CCC(C1CCOCC1)N1Cc2cc(Oc3ccccc3)ccc2N=C1N)C1CCC(C(=O)O)CC1 (centres unmarked) [Compound 743]
41% | 74% | 104% |  |  |  |  | COC(=O)[C@H]1CC[C@H](NC(=O)CC[C@@H](C2CCOCC2)N2Cc3cc(Oc4ccccc4)ccc3N=C2N)CC1 [Compound 747]
45% | 81% | 109% |  |  |  |  | CN(CCCCC(=O)O)C(=O)CC[C@@H](C1CCCCC1)N1Cc2cc(Oc3ccccc3)ccc2N=C1N [Compound 752]
8% | 35% | 89% |  |  |  |  | CN(C(=O)CC[C@@H](C1CCCCC1)N1Cc2ccc(Oc3ccccc3)cc2N=C1N)C1CCCCC1 [Compound 754]
<30% | 44% | 89% |  |  |  |  | CN(C(=O)CCC(C1CCCCC1)N1Cc2cc(Oc3ccccc3)ccc2N=C1N)C1CCC(C(=O)OCc2ccccc2)CC1 (centres unmarked) [Compound 760]
 |  |  |  |  |  | % Inhibition (FS) (β-secretase(BACE) [2]; 0.3 μM test compound, 0.3 µM): <30%; % Inhibition (FS) (β-secretase(BACE) [2]; 1 μM test compound, 1 µM): 84%; % Inhibition (FS) (β-secretase(BACE) [2]; 3 μM test compound, 3 µM): 109% | CCOC(=O)C1CCC(N(C)C(=O)CCC(C2CCCCC2)N2Cc3cc(Oc4ccccc4)ccc3N=C2N)CC1 (centres unmarked) [Compound 763]
<30% | 56% | 97% |  |  |  |  | CNC(=O)C1CCC(N(C)C(=O)CCC(C2CCCCC2)N2Cc3cc(Oc4ccccc4)ccc3N=C2N)CC1 (centres unmarked) [Compound 765]
<30% | <30% | <30% |  |  |  |  | CN(C(=O)CCC(C1CCCCC1)N1Cc2cc(Oc3ccccc3)ccc2N=C1N)c1ccc(C(=O)O)cc1 (centres unmarked) [Compound 766]
<30% | 71% | 106% |  |  |  |  | CN(CC(=O)O)C(=O)CCC(C1CCCCC1)N1Cc2cc(Oc3ccccc3)ccc2N=C1N (centres unmarked) [Compound 767]
<30% | 61% | 107% |  |  |  |  | CN(C(=O)CCC(C1CCCCC1)N1Cc2cc(Oc3ccccc3)ccc2N=C1N)C1CCC(C#N)CC1 (centres unmarked) [Compound 769]

% Inhibition (FS) (β-secretase(BACE) [2]; 0.3 μM test compound) | % Inhibition (FS) (β-secretase(BACE) [2]; 1 μM test compound) | % Inhibition (FS) (β-secretase(BACE) [2]; 3 μM test compound) | inhibition at 0.3 µM (β-secretase(BACE) [2]; [6]) | inhibition at 1 µM (β-secretase(BACE) [2]; [7]) | inhibition at 3 µM (β-secretase(BACE) [2]; [8]) | other results | Compound
<30% | <30% | <30% |  |  |  |  | CN(C(=O)CCC(C1CCCCC1)N1Cc2cc(Oc3ccccc3)ccc2N=C1N)C1CCC(c2nn[nH]n2)CC1 (centres unmarked) [Compound 770]
<30% | 62% | 111% |  |  |  |  | COC(=O)Cc1cccc(CN(C)C(=O)CCC(C2CCCCC2)N2Cc3cc(Oc4ccccc4)ccc3N=C2N)c1 (centres unmarked) [Compound 775]
<30% | 77% | 113% |  |  |  |  | CN(Cc1cccc(CC(=O)O)c1)C(=O)CCC(C1CCCCC1)N1Cc2cc(Oc3ccccc3)ccc2N=C1N (centres unmarked) [Compound 778]
69% | 97% | 109% |  |  |  |  | COC(=O)C(COCc1ccccc1)N(C)C(=O)CCC(C1CCCCC1)N1Cc2cc(Oc3ccccc3)ccc2N=C1N (centres unmarked) [Compound 780]
106% | 109% | 121% |  |  |  |  | CN(C(=O)CCC(C1CCCCC1)N1Cc2cc(Oc3ccccc3)ccc2N=C1N)C(COCc1ccccc1)C(=O)O (centres unmarked) [Compound 781]
 |  |  | < 30% | < 30% | < 30% |  | CN(C(=O)c1cccc(CN2Cc3ccccc3N=C2N)c1)C1CCCCC1 [Compound 801]
 |  |  | < 30% | < 30% | 50% |  | CN(C(=O)c1cccc(CN2Cc3cc(Br)ccc3N=C2N)c1)C1CCCCC1 [Compound 802]
 |  |  | < 30% | < 30% | < 30% |  | CN(C(=O)CC(c1ccccc1)N1Cc2cc(F)ccc2N=C1N)C1CCCCC1 (centres unmarked) [Compound 803]
 |  |  | < 30% | < 30% | < 30% |  | NC1=Nc2ccc(Br)cc2CN1CCC(=O)NC12CC3CC(CC(C3)C1)C2 [Compound 804]
 |  |  | < 30% | < 30% | < 30% |  | NC1=Nc2ccc(Oc3ccccc3)cc2CN1Cc1cccc(C(=O)O)c1 [Compound 805]
 |  |  | < 30% | < 30% | < 30% |  | NC1=Nc2ccc(Br)cc2CN1CCNC(=O)C1CCCCC1 [Compound 806]
 |  |  | < 30% | < 30% | < 30% |  | N#Cc1cccc(C(=O)NCCN2Cc3cc(Br)ccc3N=C2N)c1 [Compound 807]
 |  |  | < 30% | < 30% | < 30% |  | CCCC(=O)NCCN1Cc2cc(Br)ccc2N=C1N [Compound 808]
 |  |  | < 30% | < 30% | 32% |  | CC(C)(C)C(=O)NCCN1Cc2cc(Br)ccc2N=C1N [Compound 809]
 |  |  | < 30% | < 30% | < 30% |  | COc1cccc(CCNC(=O)CCC(C2CCCCC2)N2Cc3cc(F)ccc3N=C2N)c1 (centres unmarked) [Compound 810]
 |  |  | < 30% | < 30% | < 30% |  | NC1=Nc2ccc(Oc3ccccc3)cc2CN1Cc1cccc(N)c1 [Compound 811]
